From paper PMC8482815, “Targeting Host Glycolysis as a Strategy for Antimalarial Development” (Frontiers in Cellular and Infection Microbiology, 2021)
“And” between values parts separate entries of the source, which are not always exact repeats. Equal values may be shown once.

System: human erythrocytes
Assay: Untargeted metabolomics and 13C-glucose tracing of enolase inhibitor treated erythrocytes
Format: cell-based
Conditions: 1h
Protocol: Freshly collected erythrocytes were washed, resuspended to 10% hematocrit in buffer [25mM HEPES (pH 7.4), 120mM NaCl, 5.4mM KCl, 1.8mM CaCl2, and 1mM NaH2PO4], incubated for 1 hour at 37°C, then centrifuged at 2000xg for 5 minutes at 4°C, resuspended in fresh wash buffer to 30-40% hematocrit, and split into 210µL aliquots of packed erythrocytes. […] All samples were incubated at 37°C shaking at 500 RPM. Triplicate samples of supernatants and packed erythrocytes were collected at 0, 0.5, 1, and 6-hour intervals and snap-frozen in liquid N2.
RBC and media samples were extracted at 1:10 and 1:20 dilutions, respectively, in 5:3:2 MeOH : MeCN:H2O v/v/v, and supernatants analyzed on a Thermo Vanquish UHPLC coupled to a Thermo Q Exactive mass spectrometer, as extensively described ([Nemkov et al., 2015]; [Nemkov et al., 2017]). The extraction buffer was supplemented with 40uM 3-^13C lactate to allow absolute quantification of lactate isotopologues, including lactate generated via glycolysis ([1,2,3-^13C3] enriched) vs. the pentose phosphate pathway ([2,3-^13C2] enriched), as described ([Reisz et al., 2016]). Metabolite assignments, peak area integration and isotopologues distributions were determined using Maven (Princeton University) ([Nemkov et al., 2015]; [Nemkov et al., 2017]).
Data were auto-scaled and normalized to zero-hour time points. Metabolites were removed from the dataset if greater than 50% of the samples contained missing values or the relative standard deviation among replicates exceeded 25%. Additionally, data was filtered using the interquartile range to reduce near-constant values from the experiment by 5%.
A principal component analysis of preprocessed data was plotted with the 95% confidence interval minimum volume enclosing ellipsoid for each respective group (MetaboAnalyst, cluster, plotly). A two-way repeated measures analysis of variance (ANOVA) was performed with multiple comparisons corrected for using a false discovery rate p-value cutoff of 0.05. Metabolite-Pathway analysis was performed using the R package of MetaboAnalyst, as previously described ([Xia and Wishart, 2010]). Metabolite-Protein nodal analysis was performed using omicsnet.ca and as previously described ([Zhou and Xia, 2018]).

[1] = treated erythrocytes, one value per replicate sample, polarity +
[2] = treated erythrocytes, one value per replicate sample, polarity -
[3] = treated erythrocytes, replicate samples

SMILES: CC(C)(C)C(=O)OCOP(=O)(OCOC(=O)C(C)(C)C)C1CCCN(O)C1=O (stereo not shown) [POMHEX]
- AMP level (metabolomics signal) (replicate samples): 1.96E+06 and 2.60E+06 and 1.22E+06
- ATP level (metabolomics signal) (replicate samples): 1.32E+04 and 2.11E+04 and 3.43E+04
- Adenine level (metabolomics signal) (replicate samples): 1.75E+05 and 1.63E+05 and 1.61E+05
- Cytosine level (metabolomics signal) (replicate samples): 4.76E+05 and 3.43E+05 and 2.67E+05
- L-alanine level (metabolomics signal) (replicate samples): 1.12E+07 and 9.08E+06 and 1.05E+07
- L-arginine level (metabolomics signal) (replicate samples): 4.18E+06 and 1.19E+07 and 3.04E+06
- L-asparagine level (metabolomics signal) (replicate samples): 7.53E+06 and 8.13E+06 and 7.16E+06
- L-aspartate level (metabolomics signal) (replicate samples): 2.28E+07 and 2.29E+07 and 1.75E+07
- L-cysteine level (metabolomics signal) (replicate samples): 2.57E+05 and 1.28E+06 and 6.21E+05
- L-glutamate level (metabolomics signal) (replicate samples): 2.16E+07 and 2.10E+07 and 1.73E+07
- L-glutamine level (metabolomics signal) (replicate samples): 6.97E+07 and 8.81E+07 and 6.57E+07
- L-histidine level (metabolomics signal) (replicate samples): 1.22E+06 and 1.29E+06 and 1.07E+06
- L-isoleucine level (metabolomics signal) (replicate samples): 9.19E+06 and 1.31E+07 and 8.52E+06
- L-leucine level (metabolomics signal) (replicate samples): 1.97E+08 and 2.85E+08 and 1.36E+08
- L-lysine level (metabolomics signal) (replicate samples): 1.46E+06 and 1.53E+06 and 1.05E+06
- L-methionine level (metabolomics signal) (replicate samples): 1.81E+07 and 2.91E+07 and 1.59E+07
- L-phenylalanine level (metabolomics signal) (replicate samples): 1.22E+07 and 1.56E+07 and 8.20E+06
- L-proline level (metabolomics signal) (replicate samples): 4.14E+07 and 6.25E+07 and 4.63E+07
- L-serine level (metabolomics signal) (replicate samples): 6.19E+06 and 5.89E+06 and 5.91E+06
- L-threonine level (metabolomics signal) (replicate samples): 7.85E+06 and 8.68E+06 and 7.03E+06
- L-tryptophan level (metabolomics signal) (replicate samples): 4.00E+06 and 3.89E+06 and 2.67E+06
- L-tyrosine level (metabolomics signal) (replicate samples): 2.39E+07 and 3.62E+07 and 2.21E+07
- L-valine level (metabolomics signal) (replicate samples): 1.59E+08 and 1.34E+08 and 1.66E+08
- dCMP level (metabolomics signal) (replicate samples): 6.47E+03 and 1.42E+04 and 8.65E+03
- dTMP level (metabolomics signal) (replicate samples): 6.95E+05 and 1.44E+06 and 5.66E+05
- glycine level (metabolomics signal) (replicate samples): 2.53E+06 and 2.52E+06 and 2.98E+06
- N-Acyl-D-aspartate (C06380) metabolite signal [1]: 1.39E+05 and 1.05E+05 and 7.72E+04
- Poly-gamma-D-glutamate (C05723) metabolite signal [1]: 4.55E+07 and 6.01E+07 and 4.31E+07
- D-Ribitol 5-phosphate (C01068) metabolite signal [2]: 1.36E+04 and 3.79E+04 and 1.11E+04
- D-glucono-1,5-lactone (C00198) metabolite signal [2]: 3.37E+05 and 3.01E+05 and 3.48E+05
- L-Noradrenaline (C00547) metabolite signal [2]: 3.29E+04 and 4.04E+04 and 2.83E+04
- Oxalosuccinate (C05379) metabolite signal [2]: 9.85E+04 and 9.72E+04 and 1.00E+05
- Pyridoxamine (C00534) metabolite signal [2]: 1.26E+04 and 1.81E+04 and 8.56E+03
- Thioredoxin disulfide (C00343) metabolite signal [2]: 3.49E+04 and 1.17E+05 and 2.13E+04
- 1-4-beta-D-Xylan (metabolite signal) [3]: 1.76E+05 and 2.60E+05 and 1.54E+05
- 2-Hydroxyglutarate/Citramalate (C02630) metabolite signal [3]: 4.45E+04 and 4.76E+04 and 4.24E+04
- 5-6-Dihydrothymine (C00906) metabolite signal [3]: 2.57E+05 and 3.03E+05 and 1.85E+05
- 5-10-Methenyltetrahydrofolate (metabolite signal) [3]: 1.81E+05 and 1.74E+05 and 1.10E+05
- 5-Hydroxyisourate (C11821) metabolite signal [3]: 4.87E+06 and 2.62E+06 and 4.93E+06
- 5-L-Glutamyl-taurine (metabolite signal) [3]: 1.73E+05 and 9.38E+04 and 2.11E+05
- 5-Oxoproline (metabolite signal) [3]: 5.99E+05 and 6.10E+05 and 6.21E+05
- (S)(+)-Allantoin (C02350) metabolite signal [3]: 1.83E+04 and 1.70E+04 and 1.48E+04
- Allantoate (C00499) metabolite signal [3]: 1.28E+05 and 4.06E+05 and 1.02E+05
- Ascorbate (metabolite signal) [3]: 6.30E+04 and 1.08E+05 and 4.97E+04
- CMP-N-acetylneuraminate (metabolite signal) [3]: 6.05E+03 and 4.63E+03 and 2.62E+03
- Carnosine (metabolite signal) [3]: 2.09E+05 and 1.71E+05 and 1.90E+05
- Citrate (C00158) metabolite signal [3]: 1.89E+04 and 2.10E+04 and 1.46E+04
- Creatine (metabolite signal) [3]: 2.57E+08 and 2.12E+08 and 2.30E+08
- Creatinine (metabolite signal) [3]: 2.38E+06 and 2.51E+06 and 2.49E+06
- Cys-Gly (metabolite signal) [3]: 7.57E+05 and 1.20E+06 and 8.09E+05
- D-Glucosamine (metabolite signal) [3]: 6.03E+05 and 3.34E+05 and 1.05E+06
- D-Glucose (C00031) metabolite signal [3]: 4.53E+06 and 6.78E+06 and 3.73E+06
- D-Ribose (C00121) metabolite signal [3]: 1.22E+05 and 1.96E+05 and 1.18E+05
- Dehydroascorbate (metabolite signal) [3]: 4.03E+04 and 3.78E+04 and 2.56E+04
- Dihydrofolate (metabolite signal) [3]: 6.94E+05 and 1.83E+06 and 6.55E+05
- Dimethylglycine (metabolite signal) [3]: 1.12E+06 and 8.60E+05 and 1.04E+06
- Diphosphate (C00013) metabolite signal [3]: 1.40E+04 and 3.85E+04 and 1.73E+04
- Fumarate (C00122) metabolite signal [3]: 8.16E+04 and 8.08E+04 and 7.78E+04
- Glutathione (C00051) metabolite signal [3]: 5.06E+07 and 7.77E+07 and 5.74E+07
- Glutathione disulfide (metabolite signal) [3]: 7.45E+04 and 7.57E+04 and 5.41E+04
- Hypoxanthine (C00262) metabolite signal [3]: 6.66E+03 and 1.71E+04 and 1.69E+04
- IMP (C00130) metabolite signal [3]: 7.81E+04 and 9.15E+04 and 6.22E+04
- Inosine (C00294) metabolite signal [3]: 6.22E+04 and 5.44E+04 and 6.05E+04
- L-Citrulline (metabolite signal) [3]: 5.24E+06 and 4.00E+06 and 4.92E+06
- L-Homoserine (metabolite signal) [3]: 1.76E+05 and 2.52E+05 and 1.58E+05
- Lactate (C01432) metabolite signal [3]: 7.95E+06 and 9.12E+06 and 7.54E+06
- Malate (C00149) metabolite signal [3]: 6.76E+04 and 6.17E+04 and 6.25E+04
- Mannitol (C00392) metabolite signal [3]: 1.25E+05 and 1.54E+05 and 1.02E+05
- N-Acetylneuraminate (metabolite signal) [3]: 1.98E+04 and 1.32E+04 and 1.62E+04
- N-Glycoloyl-neuraminate (metabolite signal) [3]: 7.97E+04 and 1.42E+05 and 5.68E+04
- NAD+ (C00003) metabolite signal [3]: 1.57E+04 and 4.46E+04 and 2.15E+04
- Nicotinamide (C00153) metabolite signal [3]: 4.80E+07 and 5.08E+07 and 4.18E+07
- Ornithine (metabolite signal) [3]: 1.57E+06 and 1.30E+06 and 1.16E+06
- Oxaloacetate (C00036) metabolite signal [3]: 3.29E+04 and 5.49E+04 and 3.03E+04
- Phosphoserine (metabolite signal) [3]: 0.00E+00 (2×) and 1.77E+04
- Putrescine (metabolite signal) [3]: 4.04E+04 and 3.04E+04 and 2.63E+04
- Pyridoxal (C00250) metabolite signal [3]: 5.25E+04 and 8.23E+04 and 7.59E+04
- Pyruvate (C00022) metabolite signal [3]: 5.39E+05 and 7.10E+05 and 4.33E+05
- S-Glutathionyl-L-cysteine (metabolite signal) [3]: 5.57E+04 and 6.02E+04 and 1.82E+04
- Sedoheptulose 1-phosphate (C06222) metabolite signal [3]: 2.81E+03 and 3.84E+03 and 2.38E+03
- Spermidine (metabolite signal) [3]: 7.32E+06 and 6.78E+06 and 6.25E+06
- Spermine (metabolite signal) [3]: 7.58E+06 and 7.10E+06 and 6.92E+06
- Succinate (C00042) metabolite signal [3]: 6.13E+04 and 9.94E+04 and 5.79E+04
- Thymidine (C00214) metabolite signal [3]: 1.12E+04 and 1.26E+04 and 8.73E+03
- UDP (C00015) metabolite signal [3]: 5.07E+04 and 1.42E+05 and 2.88E+04
- UDP-N-acetyl-D-glucosamine (metabolite signal) [3]: 2.55E+03 and 3.51E+03 and 2.64E+03
- UDP-glucose (C00029) metabolite signal [3]: 5.62E+03 and 1.08E+04 and 6.04E+03
- Urate (C00366) metabolite signal [3]: 2.31E+04 and 2.80E+04 and 2.12E+04
- Xanthine (C00385) metabolite signal [3]: 1.88E+05 and 1.43E+05 and 1.48E+05
- alpha-D-Glucosamine 1-phosphate (metabolite signal) [3]: 8.86E+05 and 4.48E+05 and 1.21E+06
- alpha-D-Ribose 1-phosphate (C00620) metabolite signal [3]: 2.29E+04 and 4.78E+04 and 2.91E+04
- gamma-Glutamyl-gamma-aminobutyrate (metabolite signal) [3]: 9.00E+04 and 5.89E+04 and 7.26E+04
- gamma-L-Glutamyl-D-alanine (metabolite signal) [3]: 1.81E+04 and 1.74E+04 and 1.70E+04
- gamma-L-Glutamyl-L-cysteine (metabolite signal) [3]: 1.43E+04 and 3.68E+04 and 6.67E+03
